Ratio of aggregates and Whether precipitation data for 16 molecules are collected here from patent US20220233708A1, “ANTIBODY-DRUG CONJUGATE, INTERMEDIATE THEREOF, PREPARATION METHOD THEREFOR AND APPLICATION THEREOF” (priority 2019, published 2022).

Starred links: 1 amine or outer side, 2 acyl side, 3 side chain; linkers in the order of their positions; H or OH if unused. Non-standard residues stand in square brackets, D forms with d. Residues, ends and D or L forms follow the SMILES beside them. *: point of attachment. Exatecan = CC[C@@]1(O)C(=O)OCc2c1cc1n(c2=O)Cc2c-1nc1cc(F)c(C)c3c1c2[C@@H](N*)CC3; X2 = CC[C@@]1(O)C(=O)OC(=O)C2=C1C=C1c3nc4cc(F)c(C)c5c4c(c3CN1C2)[C@@H](N*)CC5; Hexanoyl(6-maleimido) = O=C1C=CC(=O)N1CCCCCC(=O)*; X3 = O=C1C=CC(=O)N1CC1CCC(C(=O)*)CC1; X1 = O=C1C=C(Br)C(=O)N1CCCCCC(=O)*; NHCH2OCH2CO = O=C(COCN[*:1])[*:2]

Holding throughout (assay type): physicochemical
The test system of series [1] is anti-HER2 antibody Trastuzumab. Nature of the series: Coupling of linker-drug conjugates with Trastuzumab. The note with it: highest DAR (excessive coupling). The procedure: (§1) The anti-B7-H3 antibody P2E5, anti-Claudin18.2 antibody IMAB362, and anti-HER2 antibody Trastuzumab (concentration was 15 mg/mL) were replaced into 50 mM PB/1.0 mM EDTA buffer (pH 7.0) by a G25 desalting column, respectively. 12 equivalents of TECP was added and the mixture was stirred at 37° C. for 2 hours to fully open the disulfide bonds between the antibody chains. Then phosphoric acid was used to adjust the pH of the reduced antibody solution to 6.0, and the temperature of the water bath was lowered to 25° C. for coupling reaction. […] After the reaction was completed, the sample was filtered with a 0.22 μm membrane. Uncoupled small molecules were purified and removed by a tangential flow ultrafiltration system. The buffer was 50 mM PB/1.0 mM EDTA solution (pH 6.0). After purification, sucrose (final concentration was 6%) was added, and the mixture was stored in a refrigerator at −20° C. The UV method was used to measure the absorbance values at 280 nm and 370 nm respectively, and the DAR value was calculated.

Series [2] has as its system anti-Claudin18.2 antibody IMAB362. Description: Coupling of linker-drug conjugates with IMAB362. The following applies: coupling with IMAB362, highest DAR (excessive coupling). Here is the method: as §1
Another series relates to anti-B7-H3 antibody P2E5. Description: Coupling of linker-drug conjugates with P2E5. The following applies: coupling with P2E5, highest DAR (excessive coupling). The procedure: as §1

As to `CC[C@@]1(O)C(=O)OCc2c1cc1n(c2=O)Cc2c-1nc1cc(F)c(C)c3c1c2[C@@H](NC(=O)COCNC(=O)CNC(=O)[C@H](Cc1ccccc1)NC(=O)CNC(=O)CNC(=O)C1CCC(CN2C(=O)C=CC2=O)CC1)CC3` (stereo partly drawn) [LE01] (X3-GGFG[NHCH2OCH2CO]-Exatecan), the Ratio of aggregates in series [1] came out at 0.2%; in series [2], 2.0%; in the series on anti-B7-H3 antibody P2E5, 2.1%. The Whether precipitation entry (in series [1]; in series [2]; in the series with anti-B7-H3 antibody P2E5) was “No” each time.

Consider `CCC1(O)C(=O)OC(=O)C2=C1C=C1c3nc4cc(F)c(C)c5c4c(c3CN1C2)C(NC(=O)COCNC(=O)CNC(=O)C(Cc1ccccc1)NC(=O)CNC(=O)CNC(=O)C(CCCCN1C(=O)C=CC1=O)S(=O)(=O)O)CC5` (stereo not drawn) [LE02], for which the figures for the Ratio of aggregates (in series [1]; in series [2]; in the series with anti-B7-H3 antibody P2E5) were 0.2%, 1.8% and 1.3%, respectively. For the same molecule, the Whether precipitation entry (in series [1]; in series [2]; in the series on anti-B7-H3 antibody P2E5) was “No” each time.

As for `CCC1(O)C(=O)OC(=O)C2=C1C=C1c3nc4cc(F)c(C)c5c4c(c3CN1C2)C(NC(=O)COCNC(=O)CNC(=O)C(Cc1ccccc1)NC(=O)CNC(=O)CNC(=O)C(CN)N1C(=O)C=CC1=O)CC5` (stereo not drawn) [LE03], the Ratio of aggregates in series [1] was determined as 0.2%; in series [2] it was 1.5%; in the series on anti-B7-H3 antibody P2E5, 1.1%. In addition, the Whether precipitation result (in series [1]; in series [2]; with anti-B7-H3 antibody P2E5) was “No” each time.

As to `CCC1(O)C(=O)OC(=O)C2=C1C=C1c3nc4cc(F)c(C)c5c4c(c3CN1C2)C(NC(=O)COCNC(=O)CNC(=O)C(Cc1ccccc1)NC(=O)CNC(=O)CNC(=O)CCOCCOCCOCCOCCOCCOCCOCCOCCN1C(=O)C=CC1=O)CC5` (stereo not drawn) [LE04], the Ratio of aggregates in series [1] was determined as 0.1%; in series [2] it was 2.1%; with anti-B7-H3 antibody P2E5, 2.5%. Further, the Whether precipitation entry (in series [1]; in series [2]; in the series on anti-B7-H3 antibody P2E5) was “No” each time.

Regarding `CC[C@@]1(O)C(=O)OCc2c1cc1n(c2=O)Cc2c-1nc1cc(F)c(C)c3c1c2[C@@H](NC(=O)COCNC(=O)CNC(=O)[C@H](Cc1ccccc1)NC(=O)CNC(=O)CNC(=O)CCCCCN1C(=O)C=C(Br)C1=O)CC3` [LE05] (X1-GGFG[NHCH2OCH2CO]-Exatecan), the Ratio of aggregates came out at 0.1% in series [1], 2.3% in series [2] and 1.6% with anti-B7-H3 antibody P2E5. In addition, the Whether precipitation result (in series [1]; in series [2]; in the series on anti-B7-H3 antibody P2E5) was “No” in each case.

On to `CC[C@@]1(O)C(=O)OC(=O)C2=C1C=C1c3nc4cc(F)c(C)c5c4c(c3CN1C2)[C@@H](NC(=O)COCNC(=O)CNC(=O)[C@H](Cc1ccccc1)NC(=O)CNC(=O)CNC(=O)[C@H](CCCCN)NC(=O)CCCCCN1C(=O)C=CC1=O)CC5` [LE06] ({Hexanoyl(6-maleimido)}-KGGFG[NHCH2OCH2CO]-X2), for which the Ratio of aggregates in series [1] turned out to be 0.5%; in series [2] it was 1.7%; with anti-B7-H3 antibody P2E5 it was 1.2%. Further, the Whether precipitation entry (in series [1]; in series [2]; with anti-B7-H3 antibody P2E5) was “No” throughout.

Turning to `CC[C@@]1(O)C(=O)OCc2c1cc1n(c2=O)Cc2c-1nc1cc(F)c(C)c3c1c2[C@@H](NC(=O)COCNC(=O)CNC(=O)[C@H](Cc1ccccc1)NC(=O)CNC(=O)[C@H](CCCCN)NC(=O)CCCCCN1C(=O)C=CC1=O)CC3.O=C(O)C(F)(F)F` [LE07] ({Hexanoyl(6-maleimido)}-KGFG[NHCH2OCH2CO]-Exatecan), the Ratio of aggregates in series [1] is on record as 0.5%; in series [2], 1.6%; with anti-B7-H3 antibody P2E5, 1.3%. For the same molecule, the Whether precipitation entry (in series [1]; in series [2]; with anti-B7-H3 antibody P2E5) was “No” each time.

On to `CC[C@@]1(O)C(=O)OC(=O)C2=C1C=C1c3nc4cc(F)c(C)c5c4c(c3CN1C2)[C@@H](NC(=O)COCN(CCN(C)C)C(=O)OCc1ccc(NC(=O)[C@H](C)NC(=O)[C@@H](NC(=O)CCCCCN2C(=O)C=CC2=O)C(C)C)cc1)CC5` [LE13], for which the Ratio of aggregates in series [1] is 0.1%; in series [2] it was 2.3%; in the series on anti-B7-H3 antibody P2E5 it was 1.5%. The Whether precipitation entry (in series [1]; in series [2]; in the series with anti-B7-H3 antibody P2E5) was “No” throughout.

`CC[C@@]1(O)C(=O)OC(=O)C2=C1C=C1c3nc4cc(F)c(C)c5c4c(c3CN1C2)[C@@H](NC(=O)COCN(CCS(C)(=O)=O)C(=O)OCc1ccc(NC(=O)[C@H](C)NC(=O)[C@@H](NC(=O)C(CCCCN2C(=O)C=CC2=O)S(=O)(=O)O)C(C)C)cc1)CC5` (stereo partly drawn) [LE15]: the Ratio of aggregates in series [1] was 0.2%; in series [2] it was 1.6%; in the series on anti-B7-H3 antibody P2E5, 2.1%. Moreover, the Whether precipitation entry (in series [1]; in series [2]; with anti-B7-H3 antibody P2E5) was “No” throughout.

For the molecule `CC[C@@]1(O)C(=O)OC(=O)C2=C1C=C1c3nc4cc(F)c(C)c5c4c(c3CN1C2)[C@@H](NC(=O)COCN(CCS(C)(=O)=O)C(=O)OCc1ccc(NC(=O)[C@H](C)NC(=O)[C@@H](NC(=O)C2CCC(CN3C(=O)C=CC3=O)CC2)C(C)C)cc1)CC5` (stereo partly drawn) [LE16], the Ratio of aggregates in series [1] is given as 0.5%; in series [2] it was 1.5%; in the series with anti-B7-H3 antibody P2E5 it was 2.0%. For the same molecule, the Whether precipitation result (in series [1]; in series [2]; in the series on anti-B7-H3 antibody P2E5) was “No” throughout.

With `CC[C@@]1(O)C(=O)OC(=O)C2=C1C=C1c3nc4cc(F)c(C)c5c4c(c3CN1C2)[C@@H](NC(=O)COCN(CCN(C)C)C(=O)OCc1ccc(NC(=O)[C@H](C)NC(=O)[C@@H](NC(=O)C2CCC(CN3C(=O)C=CC3=O)CC2)C(C)C)cc1)CC5` (stereo partly drawn) [LE17], the Ratio of aggregates in series [1] worked out at 0.1%; in series [2], 1.6%; in the series with anti-B7-H3 antibody P2E5, 1.5%. In addition, the Whether precipitation result (in series [1]; in series [2]; in the series on anti-B7-H3 antibody P2E5) was “No” each time.

`CC[C@@]1(O)C(=O)OC(=O)C2=C1C=C1c3nc4cc(F)c(C)c5c4c(c3CN1C2)[C@@H](NC(=O)COCN(CCS(C)(=O)=O)C(=O)OCc1ccc(NC(=O)[C@H](C)NC(=O)[C@@H](NC(=O)CCCn2cc(CNC3CCC(CN4C(=O)C=CC4=O)CC3)nn2)C(C)C)cc1)CC5` (stereo partly drawn) [LE18]: the Ratio of aggregates in series [1] is listed as 0.1%; in series [2], 2.1%; in the series with anti-B7-H3 antibody P2E5, 1.6%. In addition, the Whether precipitation entry (in series [1]; in series [2]; with anti-B7-H3 antibody P2E5) was “No” in each case.

Turning to `CC[C@@]1(O)C(=O)OC(=O)C2=C1C=C1c3nc4cc(F)c(C)c5c4c(c3CN1C2)[C@@H](NC(=O)COCN(CCS(C)(=O)=O)C(=O)OCc1ccc(NC(=O)[C@H](C)NC(=O)[C@@H](NC(=O)CCCn2cc(CNC(=O)CCCCCN3C(=O)C=CC3=O)nn2)C(C)C)cc1)CC5` [LE19], the Ratio of aggregates in series [1] is recorded as 0.2%; in series [2], 1.4%; in the series on anti-B7-H3 antibody P2E5, 1.2%. Further, the Whether precipitation entry (in series [1]; in series [2]; in the series with anti-B7-H3 antibody P2E5) was “No” each time.

Consider `CC[C@@]1(OCN(CCS(C)(=O)=O)C(=O)OCc2ccc(NC(=O)[C@H](C)NC(=O)[C@@H](NC(=O)CCCCCN3C(=O)C=CC3=O)C(C)C)cc2)C(=O)OCc2c1cc1n(c2=O)Cc2c-1nc1cc(F)c(C)c3c1c2[C@@H](NC(=O)CO)CC3` [LE21], for which the Ratio of aggregates in series [1] came out at 0.2%; in series [2], 2.3%; in the series on anti-B7-H3 antibody P2E5, 2.2%. The Whether precipitation entry (in series [1]; in series [2]; in the series with anti-B7-H3 antibody P2E5) was “No” each time.

In the case of `CC[C@@]1(OCN(CCN(C)C)C(=O)OCc2ccc(NC(=O)[C@H](C)NC(=O)[C@@H](NC(=O)CCCCCN3C(=O)C=CC3=O)C(C)C)cc2)C(=O)OCc2c1cc1n(c2=O)Cc2c-1nc1cc(F)c(C)c3c1c2[C@@H](NC(=O)CO)CC3` [LE22], the Ratio of aggregates in series [1] was found to be 0.5%; in series [2], 1.5%; in the series with anti-B7-H3 antibody P2E5, 2.1%. The Whether precipitation result (in series [1]; in series [2]; in the series with anti-B7-H3 antibody P2E5) was “No” each time.

Consider `CC[C@@]1(O)C(=O)OCc2c1cc1n(c2=O)Cc2c-1nc1cc(F)c(C)c3c1c2[C@@H](NC(=O)COCNC(=O)CNC(=O)[C@H](Cc1ccccc1)NC(=O)[C@H](C)NC(=O)[C@@H](NC(=O)CCCCCN1C(=O)C=CC1=O)C(C)C)CC3` [LE23] ({Hexanoyl(6-maleimido)}-VAFG[NHCH2OCH2CO]-Exatecan), for which the Ratio of aggregates in series [1] is 0.1%; in series [2] it was 1.6%; in the series on anti-B7-H3 antibody P2E5, 1.9%. In addition, the Whether precipitation entry (in series [1]; in series [2]; with anti-B7-H3 antibody P2E5) was “No” throughout.
